US20260174769A1, “MACROCYCLIC COMPOUNDS AND METHODS OF USE” (AMGEN INC., priority 2022, published 2026)
Where two headings read alike, the source gives them in different places.

How the values were obtained:
[1] = 16-membered ring
[2] = test system: phospho-ERK1/2 in PANC 04.03 tumors; assay: Tumor Pharmacodynamic Assay (p-ERK inhibition in PANC 04.03 tumor-bearing mice); assay type: in vivo; conditions: PANC 04.03 tumor-bearing female athymic nude mice; single oral dose 100 mg/kg; tumors harvested 2 hours later; p-ERK1/2 normalized to total ERK1/2, relative to vehicle group
Description: Tumor Pharmacodynamic Assays
Inhibitor pharmacodynamic effects were assessed in PANC 04.03 tumor-bearing mice. PANC 04.03 tumor cells (5.0E+06 cells) were injected subcutaneously into the flank of female athymic nude mice in a mixture with Matrigel (BD Bioscience). Mice received a single oral dose of either vehicle or inhibitors (100 mg/kg) when the average tumor size reached ˜300-600 mm^3 (n=3/group) and harvested 2 hours later. Tumor samples were collected, snap frozen, and processed for analysis by pulverizing with a cryoPREP® Dry Impactor (Covaris). Pulverized samples were resuspended in RIPA lysis buffer containing protease and phosphatase inhibitors and homogenized. Cleared lysates were analyzed using phospho-ERK1/2 and total ERK1/2 whole cell lysate kits (Meso Scale Discovery) according to the manufacturer's protocol. Phospho-ERK1/2 signal was normalized to total ERK1/2 signal for a given sample, and percent inhibition of p-ERK was calculated relative to the vehicle group.

AsPC-1 cells = assay: AsPC-1 CTG Assay (CellTiter-Glo cell viability, 72 h); assay type: cell-based, human; conditions: read-out: G12D/C/V Cell Proliferation CTG (72 h) AsPC-1
Description: (§1) AsPC-1 and SW620 CTG Assay Protocols
(§2) Serially-diluted compound or DMSO was added to the cells, and plates were incubated at 37° C., 5% CO2 for 72 h. Cell viability was measured using a CellTiter-Glo® Luminescent Cell Viability Assay kit (Promega) according to the manufacturer's protocol. The luminescence signal of treated samples was normalized to DMSO control, and data were analyzed using a 4-parameter logistic model to calculate IC50 values.

[3] = test system: Phosphorylation of ERK1/2 in AsPC-1 cells; assay: Phospho-ERK1/2 MSD Assay; assay type: cell-based, human; conditions: read-out: 2 h p-ERK (AsPC-1 cells), IC50
Description: Sixteen hours prior to compound treatment, AsPC-1 cells were seeded in 96-well cell culture plates at a density of 25,000 cells/well and incubated at 37° C., 5% CO2. A compound dose-response titration was diluted in growth media, added to appropriate wells of a cell culture plate, and then incubated at 37° C., 5% CO2 for 2 hours. […] Phosphorylation of ERK1/2 in compound-treated lysates was assayed using Phospho-ERK 1/2 Whole Cell Lysate kits (Meso Scale Discovery K151DWD) according to the manufacturer's protocol. Assay plates were read on a Meso Scale Discovery Sector Imager 6000, and data were analyzed using a 4-parameter logistic model to calculate IC50 values.

MIA PaCa-2 cells = assay: MIA PaCa-2 CTG Assay (CellTiter-Glo cell viability, 72 h); assay type: cell-based, human; conditions: second value of cell, read-out: G12D/C/V Cell Proliferation CTG (72 h) Mia PaCa-2
Description: MIA PaCa-2 CTG Assay Protocol
as §2

SW620 cells = assay: SW620 CTG Assay (CellTiter-Glo cell viability, 72 h); assay type: cell-based; conditions: Homo sapiens, SW-620, third value of cell, read-out: G12D/C/V Cell Proliferation CTG (72 h) SW620
Description: as §1
as §2, with “AsPC-1 (human pancreatic adenocarcinoma; ATCC CRL-1682) or SW620 (human colon adenocarcinoma; ATCC CCL-227) cells were cultured in RPMI 1640 medium containing 10% fetal bovine serum and 1× penicillin/streptomycin/L-glutamine. Cells were seeded in 384-well plates at a density of 3.33E+04 cells/mL and incubated at 37° C., 5% CO2, overnight. Serially-diluted” for “Serially-diluted”

Cc1cc2c(cnn2C2CCCCO2)c2c1CCCCC(=O)N[C@@H]1CCCN(C1)c1nc(OC[C@@]34CCCN3C[C@H](F)C4)nc3c(F)c-2ncc13 (stereo partly shown)
ring closure, isolated yield ([1]; from Cc1cc2c(cnn2C2CCCCO2)c(-c2ncc3c(N4CCC[C@@H](N)C4)nc(OC[C@@]45CCCN4C[C@H](F)C5)nc3c2F)c1CCCCC(=O)O, amide bond, HATU/DIEA, DMA, 4.7 mM, 25.0 °C, 1.5 h): 22%

Cc1cc2c(cnn2C2CCCCO2)c2c1CCCn1ncc(n1)C1CCCN(C1)c1nc(OC[C@@]34CCCN3C[C@H](F)C4)nc3c(F)c-2ncc13 (stereo partly shown)
ring closure, isolated yield ([1]; from Cc1cc2c(cnn2C2CCCCO2)c(-c2ncc3c(N4CCCC(c5cn[nH]n5)C4)nc(OC[C@@]45CCCN4C[C@H](F)C5)nc3c2F)c1CCCCl, other bond, K2CO3/TBAI, MeCN, 6.9 mM, 85.0 °C, 3.0 h): 31%

O=C1COCCCc2c(Cl)cc3[nH]ncc3c2-c2ncc3c(nc(OC[C@@]45CCCN4C[C@H](F)C5)nc3c2F)N2CC[C@H]3CCN1[C@H]3C2 [Example 168]
p-ERK (% inhibition) 2 hr. [2]: 65% | IC50 (AsPC-1 cells): 10 nM | IC50 [3]: 1.3 nM

O=C1OCCc2c(Cl)cc3[nH]ncc3c2-c2ncc3c(nc(OC[C@@]45CCCN4C[C@H](F)C5)nc3c2F)N2CCO[C@]3(C2)C[C@H](C3)O1 [Example 248, (1R.3R)-10-chloro-32-fluoro-24-(((2R,7aS)-2-fluorotetrahydro-1H-pyrrolo[1,2-α]pyrrol-7a(SH)-yl)methoxy)-4,6,30-trioxa-1.3,14,19,23,25,27-hexaazaheptacyclo[25.3.1.1~1,3~.1~18,22~.0~9.17~.0~12,16~.0~21,26~]tritriaconta-9,11,14,16,18(32),19,21,23,25-nonaen-5-one]
p-ERK (% inhibition) 2 hr. [2]: 85% | IC50 (AsPC-1 cells; AsPC-1 cells, 72 h, first value of cell): 13 nM | IC50 (MIA PaCa-2 cells): 7 nM | IC50 ([3]; AsPC-1 cells, 2 h compound treatment): 7.8 nM

Fc1c2ncc3c(nc(OC[C@@]45CCCN4C[C@H](F)C5)nc13)N1CCC[C@]3(C1)C[C@H](C3)OCCCCc1c(Cl)cc3[nH]ncc3c1-2 [Example 260, (1S,3R)-10-Chloro-32-fluoro-24-(((2R,7aS)-2-fluorotetrahydro-1H-pyrrolo[1,2-a]pyrrol-7a(5H)-yl)methoxy)-4-oxa-13,14,19,23,25,27-hexaazaheptacyclo[25.3.1.1˜1,3˜.1˜18,22˜.0˜9,17˜.0˜12,16˜.0˜21,26˜]tritriaconta-9,11,14,16,18(32),19,21,23,25-nonaene bis(2,2,2-trifluoroacetate)]
IC50 (AsPC-1 cells; Homo sapiens, ASPC1, 72 h, AsPC-1 cells, 72 h, first value of cell): 40 nM | IC50 (MIA PaCa-2 cells; Homo sapiens): 26 nM | IC50 ([3]; Homo sapiens, ASPC1, 2 h, AsPC-1 cells, 2 h compound treatment): 3.2 nM | IC50 (SW620 cells): 8 nM
